Results as given in US20260184697A1, “EZH1/2 INHIBITOR, PREPARATION THEREOF, AND USE THEREOF IN ANTI-TUMOR THERAPY” (JIANGSU TASLY DIYI PHARMACEUTICAL CO., LTD., priority 2022, published 2026).
pIC50: −log10 of the molar value. Read-outs that look alike come from different tables or passages of the source.

How the values were obtained:
[1] = system: H3K27Me3 methylation in Karpas-422 cells; assay: H3K27Me3 cell method, inhibition of H3K27Me3 methylation (Test Example 2); format: cell-based, human; settings: for pIC50: Karpas-422 cells, 3 days incubation, HTRF signal, read-out: Test Example 2 H3K27Me3 inhibition (Karpas-422) IC50; for IC50: read-out: Test Example 2 H3K27Me3 inhibition (Karpas-422) IC50(nM)
Description: Karpas-422 (Nanjing Kebai, CBP60629) cells were seeded in a 96-well plate (Corning, 3894) at 15,000 cells per well in culture medium (80% 1640 (Hyclone, SH30809.01)+20% FBS (Corning, 35-081-CV)), and then added with different concentrations of compounds for treatment. The cell growth group without adding compounds is used as a positive control (maximum signal control), and the medium is used as a negative control (minimum signal control), while ensuring that in each reaction well, the final concentration of DMSO was 0.2%. Compounds and cells were incubated for 3 days in a cell culture incubator (37° C., 5% CO2). The 96-well plate was taken out from the cell culture incubator and equilibrated to room temperature, and 25 ul of cell suspension was taken out into a 384-well plate. The CCK8 (Beiyuntian, C0040) detection reagent was added, incubated at 37° C. for 1 h, and […] was detected. The rest of the cells followed the procedure of the kit EPIgeneous H3K27Me3 cellular kit (Cisbio, 62KC3PAE) to carry out experiment, read HTRF signal with BMG PHERAStar. […] By GraphPad Prism 6 with log(inhibitor)vs.response-Variable slope model simulation, the IC50 of the compound on cell activity inhibition was calculated. The fitting equation is: Y=Bottom+(Top−Bottom)/(1+10^((Log IC50−X)*HillSlope)), wherein Y represents the inhibition rate, and X represents the known concentration of the compound after Log.

EZH2/SUZ/EED = biological target: T1, EZH2/SUZ/EED (Homo sapiens, UniProt O75530+Q15022+Q15910); assay: Inhibitory effect on EZH2 by the MTase-Glo method (Test Example 1); format: biochemical; settings: EZH2/SUZ/EED 6.25 nM, H3 peptide 10 μM, SAM 3 μM, 30° C. 3 h, read-out: Test Example 1 WT EZH2 IC50
T1 construct: purchased BPS 51003
Description: (§1) The compound was dissolved in DMSO, and the compound was serially diluted using ECHO665 and transferred to a 384-well reaction plate (Corning, 3824). A sample containing only DMSO was added as a positive control (maximum signal control) and a negative control (minimum signal control), while ensuring that the final DMSO content in each reaction well was 0.5%. The protein was configured in reaction buffer (50 mM Bicine, 0.01% Triton X-100, 1 mM DTT, 0.01% BSA, pH 7.6), such that the final reaction concentrations of EZH2/SUZ/EED (BPS, 51003) protein solution and EZH1/SUZ/EED (BPS, 51006) were 6.25 nM and 25 nM, respectively. The negative control (minimum signal control) used an equal amount of buffer instead of protein solution. The prepared protein solution was added to the 384-well reaction plate and pre-incubated at room temperature for 15 minutes. The mixture of the substrate H3 peptide fragment (custom-synthesized by GenScript, biotinylated Histone H3(21-44) peptide ([…]-GG-K(Biotin)-OH)) prepared in the reaction buffer and SAM (Promega, V7601) was added into the 384-well plate, such that the final reaction concentration of H3 peptide fragment was 10 μM, and the final concentration of SAM was 3 μM. The mixture was centrifuged at 1000 rpm for 1 min. The 384-well reaction plate was placed in a constant temperature shaker and incubate at 30° C. for 3 h at a speed of 300 rpm. Then the detection reagent was added according to the experimental process of the kit MTase-Glo (Promega, V7601) and incubated.
(§2) After incubation, read with BMG PHERAStar. The luminescence signals obtained by positive control (maximum signal control) and negative control (minimum signal control) were normalized to obtain the inhibition rate of different concentrations of compounds. Then, the IC50 of the compound on the enzyme activity inhibition was calculated by GraphPad Prism 6 with log(inhibitor) vs. response-Variable slope model fitting. The fitting equation is: Y=Bottom+(Top−Bottom)/(1+10^((Log IC50−X)*HillSlope)), wherein Y represents the known percentage remaining enzyme activity, and X represents the known activity after Log compound concentration.

EZH1/SUZ/EED = biological target: T2, EZH1/SUZ/EED (Homo sapiens, UniProt O75530+Q15022+Q92800); assay: Inhibitory effect on EZH1 by the MTase-Glo method (Test Example 1); format: biochemical; settings: EZH1/SUZ/EED 25 nM, H3 peptide 10 μM, SAM 3 μM, 30° C. 3 h, read-out: Test Example 1 WT EZH1 IC50
T2 construct: purchased BPS 51006
Description: as §1, §2

T1 sequence (Q15910 2-746 limits assumed): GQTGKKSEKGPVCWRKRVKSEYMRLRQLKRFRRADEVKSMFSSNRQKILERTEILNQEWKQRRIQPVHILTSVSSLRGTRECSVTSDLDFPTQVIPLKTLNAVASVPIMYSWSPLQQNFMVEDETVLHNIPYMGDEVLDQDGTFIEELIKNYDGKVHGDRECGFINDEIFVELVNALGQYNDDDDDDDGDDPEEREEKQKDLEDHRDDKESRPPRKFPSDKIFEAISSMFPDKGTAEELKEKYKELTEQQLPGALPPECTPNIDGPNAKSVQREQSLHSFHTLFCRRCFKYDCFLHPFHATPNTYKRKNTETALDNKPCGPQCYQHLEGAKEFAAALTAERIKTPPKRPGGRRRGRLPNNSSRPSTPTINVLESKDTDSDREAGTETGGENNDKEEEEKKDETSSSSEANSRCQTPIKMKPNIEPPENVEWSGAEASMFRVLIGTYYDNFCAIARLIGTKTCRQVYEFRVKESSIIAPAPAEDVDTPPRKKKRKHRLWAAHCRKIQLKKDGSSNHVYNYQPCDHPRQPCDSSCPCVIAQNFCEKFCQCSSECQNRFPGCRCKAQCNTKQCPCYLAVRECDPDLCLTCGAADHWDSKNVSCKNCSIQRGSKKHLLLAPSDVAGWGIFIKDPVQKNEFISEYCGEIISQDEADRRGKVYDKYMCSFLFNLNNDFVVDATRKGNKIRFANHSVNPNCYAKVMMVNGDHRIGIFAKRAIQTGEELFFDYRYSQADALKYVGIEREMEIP
T1 sequence (Q15022 2-739 partner limits assumed): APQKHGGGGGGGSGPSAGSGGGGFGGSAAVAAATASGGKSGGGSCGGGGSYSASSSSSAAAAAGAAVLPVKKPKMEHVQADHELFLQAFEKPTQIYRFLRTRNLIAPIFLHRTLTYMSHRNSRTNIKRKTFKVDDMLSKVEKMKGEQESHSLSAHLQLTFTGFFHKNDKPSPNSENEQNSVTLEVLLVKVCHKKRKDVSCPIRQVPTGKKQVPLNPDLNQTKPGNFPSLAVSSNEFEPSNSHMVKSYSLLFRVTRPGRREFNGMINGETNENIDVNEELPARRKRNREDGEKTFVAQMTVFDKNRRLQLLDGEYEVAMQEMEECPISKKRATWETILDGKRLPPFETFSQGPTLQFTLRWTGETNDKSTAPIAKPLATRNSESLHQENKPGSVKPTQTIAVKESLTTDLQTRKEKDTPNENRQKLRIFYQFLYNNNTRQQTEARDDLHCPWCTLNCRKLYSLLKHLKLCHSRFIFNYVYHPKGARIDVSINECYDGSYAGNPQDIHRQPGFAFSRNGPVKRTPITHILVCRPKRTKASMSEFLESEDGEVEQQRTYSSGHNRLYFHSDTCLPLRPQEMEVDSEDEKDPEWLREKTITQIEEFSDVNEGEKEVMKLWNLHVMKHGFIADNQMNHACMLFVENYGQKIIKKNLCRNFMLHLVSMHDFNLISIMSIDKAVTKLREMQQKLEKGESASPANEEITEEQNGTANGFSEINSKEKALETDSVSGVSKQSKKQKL
T1 sequence (O75530 2-441 partner limits assumed): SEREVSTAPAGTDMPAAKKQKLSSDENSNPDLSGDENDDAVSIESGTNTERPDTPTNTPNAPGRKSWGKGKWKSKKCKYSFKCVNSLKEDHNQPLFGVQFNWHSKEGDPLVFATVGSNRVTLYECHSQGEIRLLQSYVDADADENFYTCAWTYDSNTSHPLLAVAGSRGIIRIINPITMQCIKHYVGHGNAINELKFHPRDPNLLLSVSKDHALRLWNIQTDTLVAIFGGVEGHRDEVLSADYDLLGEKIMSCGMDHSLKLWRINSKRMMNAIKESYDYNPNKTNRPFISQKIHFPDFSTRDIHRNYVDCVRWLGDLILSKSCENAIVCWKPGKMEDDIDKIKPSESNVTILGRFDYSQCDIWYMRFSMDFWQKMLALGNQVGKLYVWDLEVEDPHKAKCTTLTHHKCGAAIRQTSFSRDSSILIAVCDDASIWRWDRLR
T2 sequence (Q92800 2-747 limits assumed): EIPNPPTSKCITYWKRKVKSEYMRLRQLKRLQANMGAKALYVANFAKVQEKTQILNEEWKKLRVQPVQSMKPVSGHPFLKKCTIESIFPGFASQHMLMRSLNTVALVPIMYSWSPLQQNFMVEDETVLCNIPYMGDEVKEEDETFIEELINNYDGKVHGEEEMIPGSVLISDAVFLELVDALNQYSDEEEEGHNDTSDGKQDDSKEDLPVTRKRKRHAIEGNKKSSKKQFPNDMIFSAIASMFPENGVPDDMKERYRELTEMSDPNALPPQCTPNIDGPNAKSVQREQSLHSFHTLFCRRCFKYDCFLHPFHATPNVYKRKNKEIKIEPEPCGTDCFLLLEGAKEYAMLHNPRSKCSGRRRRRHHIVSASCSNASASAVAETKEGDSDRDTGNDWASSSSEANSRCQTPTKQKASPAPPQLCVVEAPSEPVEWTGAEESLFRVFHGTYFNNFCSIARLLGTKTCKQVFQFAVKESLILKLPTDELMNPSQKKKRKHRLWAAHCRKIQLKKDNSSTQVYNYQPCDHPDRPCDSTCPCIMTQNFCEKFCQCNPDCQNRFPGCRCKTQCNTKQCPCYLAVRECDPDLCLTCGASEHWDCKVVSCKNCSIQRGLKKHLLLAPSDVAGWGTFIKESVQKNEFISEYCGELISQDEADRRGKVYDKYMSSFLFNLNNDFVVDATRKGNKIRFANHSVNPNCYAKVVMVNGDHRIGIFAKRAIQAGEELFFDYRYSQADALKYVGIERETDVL
T2 sequence (Q15022 2-739 partner limits assumed): as the sequence (Q15022 2-739 partner limits assumed) above
T2 sequence (O75530 2-441 partner limits assumed): as the sequence (O75530 2-441 partner limits assumed) above

SMILES	pIC50 [1]	pIC50 (EZH2/SUZ/EED)	pIC50 (EZH1/SUZ/EED)	IC50 ([1]; Homo sapiens, KARPAS-422, 72 h) [nM]	pIC50 ([1]; Homo sapiens, KARPAS-422, 72 h)
Cc1cc(C)c(CNC(=O)c2cc(Cl)c3c(c2C)OC(C2CCC(N4CC5COCC5C4)CC2)CO3)c(=O)[nH]1 (single isomer, unassigned) [Compound 59]	6.63	8.02	8.15	–	–
Cc1cc(C)c(CNC(=O)c2cc(Cl)c3c(c2C)OC(C2CCC(N(C)C)CC2)C(C)O3)c(=O)[nH]1 (stereo not drawn) [Compound 124]	–	7.79	6.49	133	–
Cc1cc(C)c(CNC(=O)c2cc(Cl)c3c(c2C)O[C@@H]([C@H]2CC[C@H](N4CC5COCC5C4)CC2)CO3)c(=O)[nH]1 (stereo partly drawn) [Compound 75]	–	7.32	6.70	–	6.61
COC1CN([C@H]2CC[C@@H]([C@H]3COc4c(Cl)cc(C(=O)NCc5c(C)cc(C)[nH]c5=O)c(C)c4O3)CC2)C1 [Compound 92]	–	8.60	7.48	–	7.66
CSc1cc(C)[nH]c(=O)c1CNC(=O)c1cc(Cl)c2c(c1C)O[C@@H]([C@H]1CC[C@H](NC3(CF)COC3)CC1)CO2 [Compound 37]	–	8.51	8.23	–	8.15
Cc1cc(C)c(CNC(=O)c2cc(Cl)c3c(c2C)OC(C2CCC(N4CC(OC5CC5)C4)CC2)CO3)c(=O)[nH]1 (single isomer, unassigned) [Compound 77]	6.59	7.56	6.85	–	–
CSc1cc(C)[nH]c(=O)c1CNC(=O)c1cc(Cl)c2c(c1C)O[C@@H]([C@H]1CC[C@@H](N3CC4(COC4)C3)CC1)CO2 [Compound 28]	–	8.43	8.03	–	8.09
CSc1cc(C)[nH]c(=O)c1CNC(=O)c1cc(Cl)c2c(c1C)O[C@@H]([C@H]1CC[C@H](N3CCC3)CC1)CO2 [Compound 33]	–	8.44	8.03	7.7	–
COCCN(C)[C@H]1CC[C@@H]([C@H]2COc3c(Cl)cc(C(=O)NCc4c(SC)cc(C)[nH]c4=O)c(C)c3O2)CC1 [Compound 26]	–	8.70	8.27	–	8.47
COc1cc(C)[nH]c(=O)c1CNC(=O)c1cc(Cl)c2c(c1C)O[C@@H]([C@H]1CC[C@H](N3CC(OCCF)C3)CC1)CO2 [Compound 110]	–	8.57	7.81	–	7.67
Cc1cc(C)c(CNC(=O)c2cc(Cl)c3c(c2C)O[C@@H]([C@H]2CC[C@@H](N4CC5COCC5C4)CC2)CO3)c(=O)[nH]1 (stereo partly drawn) [Compound 73]	–	7.29	6.71	–	< 6.00
COCCN(C)[C@H]1CC[C@H]([C@H]2COc3c(Cl)cc(C(=O)NCc4c(SC)cc(C)[nH]c4=O)c(C)c3O2)CC1 [Compound 27]	–	8.64	7.84	–	7.94
CSc1cc(C)[nH]c(=O)c1CNC(=O)c1cc(Cl)c2c(c1C)O[C@@H](C1CCN(CCF)CC1)CO2 [Compound 24]	–	8.35	8.04	–	8.01
Cc1cc(C)c(CNC(=O)c2cc(Cl)c3c(c2C)OC(C2CCC(N4CC5COCC5C4)CC2)CO3)c(=O)[nH]1 (single isomer, unassigned) [Compound 60]	< 6.00	7.79	7.02	–	–
Cc1cc(C)c(CNC(=O)c2cc(Cl)c3c(c2C)OC(C2CCC(N(C)C4CC(F)C4)CC2)CO3)c(=O)[nH]1 (stereo not drawn) [Compound 126]	–	7.69	6.66	–	6.09
COC1C2CN([C@H]3CC[C@@H]([C@H]4COc5c(Cl)cc(C(=O)NCc6c(SC)cc(C)[nH]c6=O)c(C)c5O4)CC3)CC21 (stereo partly drawn) [Compound 43]	–	8.44	8.39	–	8.39

SMILES	pIC50 [1]	pIC50 (EZH2/SUZ/EED)	pIC50 (EZH1/SUZ/EED)	IC50 ([1]; Homo sapiens, KARPAS-422, 72 h) [nM]	pIC50 ([1]; Homo sapiens, KARPAS-422, 72 h)
Cc1cc(C)c(CNC(=O)c2c(C)c3c(c(Cl)c2F)OC[C@H]([C@H]2CC[C@@H](N(C)C)CC2)O3)c(=O)[nH]1 [Compound 131]	–	8.51	7.33	–	7.36
Cc1cc(C)c(CNC(=O)c2cc(Cl)c3c(c2C)CC(C)(C2CCC(N(C)C)CC2)O3)c(=O)[nH]1 (stereo not drawn) [Compound 181]	–	7.52	5.87	410	–
CSc1cc(C)[nH]c(=O)c1CNC(=O)c1cc(Cl)c2c(c1C)O[C@@H](C1CCN(CC3CCC3)CC1)CO2 [Compound 25]	–	8.80	8.08	–	7.76
COCCN(C)[C@H]1CC[C@@H]([C@H]2COc3c(Cl)cc(C(=O)NCc4c(OC)cc(C)[nH]c4=O)c(C)c3O2)CC1 [Compound 107]	–	8.49	7.75	–	7.24
CCS(=O)(=O)N1CCC([C@H]2COc3c(Cl)cc(C(=O)NCc4c(SC)cc(C)[nH]c4=O)c(C)c3O2)CC1 [Compound 38]	–	8.64	8.33	–	7.94
Cc1cc(C)c(CNC(=O)c2cc(Cl)c3c(c2Cl)OC[C@@H]([C@H]2CC[C@@H](N(C)C)CC2)O3)c(=O)[nH]1 [Compound 147]	–	8.17	7.04	83	–
CSc1cc(C)[nH]c(=O)c1CNC(=O)c1cc(Cl)c2c(c1C)O[C@@H]([C@H]1CC[C@H](N3CC(CF)C3)CC1)CO2 [Compound 35]	–	8.47	8.13	–	7.22
CSc1cc(C)[nH]c(=O)c1CNC(=O)c1cc(Cl)c2c(c1C)O[C@@H]([C@H]1CC[C@@H](NC3(CF)COC3)CC1)CO2 [Compound 36]	–	8.62	8.01	–	7.96
Cc1cc(C)c(CNC(=O)c2cc(Cl)c3c(c2C)OC(C2CCC(N4CC(F)C4)CC2)CO3)c(=O)[nH]1 (single isomer, unassigned) [Compound 70]	–	7.66	6.75	–	6.70
Cc1cc(C)c(CNC(=O)c2cc(Cl)c3c(c2C)OC(C2CCC(N4CC(F)(F)C4)CC2)CO3)c(=O)[nH]1 (single isomer, unassigned) [Compound 58]	< 6.00	7.45	5.64	–	–
Cc1cc(C)c(CNC(=O)c2cc(Cl)c3c(c2C)OC(C2CCC(N4CC(OC5CC5)C4)CC2)CO3)c(=O)[nH]1 (single isomer, unassigned) [Compound 76]	8.12	8.12	6.57	–	–
[2H]C1(OC)CN([C@H]2CC[C@@H]([C@H]3COc4c(Cl)cc(C(=O)NCc5c(SC)cc(C)[nH]c5=O)c(C)c4O3)CC2)C1 [Compound 22]	–	8.68	8.64	–	8.74
COCCN1CCC([C@H]2COc3c(Cl)cc(C(=O)NCc4c(SC)cc(C)[nH]c4=O)c(C)c3O2)CC1 [Compound 17]	–	8.34	7.78	–	7.92
Cc1cc(C)c(CNC(=O)c2cc(Cl)c3c(c2C)OC(C2CCC(N4CC(F)(F)C4)CC2)CO3)c(=O)[nH]1 (single isomer, unassigned) [Compound 57]	–	7.66	6.59	–	< 6.00
COCCOC1CN([C@H]2CC[C@@H]([C@H]3COc4c(Cl)cc(C(=O)NCc5c(C)cc(C)[nH]c5=O)c(C)c4O3)CC2)C1 [Compound 91]	–	8.42	7.56	–	7.93
